Test results as given in the supplement of paper PMC10307832.

What was measured:
Assay in all cases: relative viability (nuclei count vs DMSO), 5 days (fraction); higher = more cells survive
[1] = tested on: NCI-H441
In short: (§1)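 A single step with final 0.05% Triton X-100, 1% formaldehyde and 1 ug/ml Hoechst fixed the cells and stained nuclei 5 days after treatment. Lung cancer cell lines in 1536-well plates had been treated by pin tool the day after seeding with one drug alone or a fixed anchor-drug dose plus five library-drug doses (not always all listed) in √10 steps, and nuclei were counted on 4× images. Relative viability is the ratio of nuclei in treated wells to nuclei in vehicle wells, taken as the median of duplicate plates.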

[2] = tested on: NCI-H3122
In short: as §1

[3] = tested on: EKVX
In short: as §1

[4] = tested on: ABC-1
In short: as §1

[5] = tested on: EPLC-272H
In short: as §1

[6] = tested on: PC-14
In short: as §1

[7] = tested on: COR-L23
In short: as §1

[8] = tested on: RERF-LC-KJ
In short: as §1

[9] = tested on: NCI-H2347
In short: as §1

[10] = tested on: NCI-H2405
In short: as §1

[11] = tested on: 201T
In short: as §1

[12] = tested on: NCI-H1650
In short: as §1

[13] = tested on: NCI-H1993; settings: first compound 0.04 µM
In short: as §1

**Q.** Which relative viability ([1]; first compound 0.04 µM) does the source give for `Clc1ccc(Nc2nnc(Cc3ccncc3)c3ccccc23)cc1` [Vatalanib] + COc1cccc2cc(-c3nc([C@H]4CC[C@H](C(=O)O)CC4)n4ncnc(N)c34)[nH]c12 [OSI-027] (partner 0.5 µM) here?
**A.** The relative viability was 0.581.

**Q.** What about the relative viability ([1]; first compound 0.1265 µM) of the same compound?
**A.** Its relative viability is 0.504.

**Q.** What about the relative viability ([1]; first compound 0.4 µM) of the same compound?
**A.** Its relative viability is 0.597.

**Q.** What about the relative viability ([1]; first compound 1.265 µM) of the same compound?
**A.** Its relative viability is 0.658.

**Q.** And the relative viability ([1]; first compound 4 µM)?
**A.** Its relative viability is 0.713.

**Q.** And the relative viability ([2]; first compound 0.04 µM)?
**A.** Its relative viability is 1.13.

**Q.** What about the relative viability ([2]; first compound 0.1265 µM) of the same compound?
**A.** Its relative viability is 0.982.

**Q.** What about the relative viability ([2]; first compound 1.265 µM) of the same compound?
**A.** The relative viability was 0.934.

**Q.** What about the relative viability ([2]; first compound 4 µM) of the same compound?
**A.** Its relative viability is 0.848.

**Q.** And the relative viability ([3]; first compound 0.04 µM)?
**A.** Its relative viability is 0.743.

**Q.** What about the relative viability ([3]; first compound 0.1265 µM) of the same compound?
**A.** Its relative viability is 0.663.

**Q.** And the relative viability ([3]; first compound 0.4 µM)?
**A.** Its relative viability is 0.663.

**Q.** And the relative viability ([3]; first compound 4 µM)?
**A.** Its relative viability is 0.643.

**Q.** And the relative viability ([4]; first compound 0.04 µM)?
**A.** Its relative viability is 0.444.

**Q.** And the relative viability ([4]; first compound 0.1265 µM)?
**A.** Its relative viability is 0.512.

**Q.** What about the relative viability ([4]; first compound 1.265 µM) of the same compound?
**A.** The relative viability was 0.381.

**Q.** And the relative viability ([4]; first compound 4 µM)?
**A.** Its relative viability is 0.486.

**Q.** What about the relative viability ([5]; first compound 0.04 µM) of the same compound?
**A.** The relative viability was 0.268.

**Q.** What about the relative viability ([5]; first compound 0.1265 µM) of the same compound?
**A.** The relative viability was 0.259.

**Q.** And the relative viability ([5]; first compound 0.4 µM)?
**A.** Its relative viability is 0.323.

**Q.** What about the relative viability ([5]; first compound 1.265 µM) of the same compound?
**A.** The relative viability was 0.301.

**Q.** What about the relative viability ([5]; first compound 4 µM) of the same compound?
**A.** Its relative viability is 0.303.

**Q.** And the relative viability ([6]; first compound 0.04 µM)?
**A.** Its relative viability is 1.05.

**Q.** And the relative viability ([6]; first compound 0.1265 µM)?
**A.** The relative viability was 0.782.

**Q.** And the relative viability ([6]; first compound 0.4 µM)?
**A.** The relative viability was 0.844.

**Q.** What about the relative viability ([6]; first compound 1.265 µM) of the same compound?
**A.** The relative viability was 0.672.

**Q.** What about the relative viability ([6]; first compound 4 µM) of the same compound?
**A.** The relative viability was 0.849.

**Q.** And the relative viability ([7]; first compound 0.04 µM)?
**A.** Its relative viability is 0.814.

**Q.** And the relative viability ([7]; first compound 0.1265 µM)?
**A.** The relative viability was 0.765.

**Q.** And the relative viability ([7]; first compound 0.4 µM)?
**A.** Its relative viability is 0.891.

**Q.** And the relative viability ([7]; first compound 1.265 µM)?
**A.** Its relative viability is 0.709.

**Q.** What about the relative viability ([7]; first compound 4 µM) of the same compound?
**A.** Its relative viability is 0.722.

**Q.** What about the relative viability ([8]; first compound 0.04 µM) of the same compound?
**A.** The relative viability was 0.657.

**Q.** What about the relative viability ([8]; first compound 0.1265 µM) of the same compound?
**A.** The relative viability was 0.591.

**Q.** What about the relative viability ([8]; first compound 0.4 µM) of the same compound?
**A.** The relative viability was 0.588.

**Q.** What about the relative viability ([8]; first compound 1.265 µM) of the same compound?
**A.** Its relative viability is 0.549.

**Q.** What about the relative viability ([8]; first compound 4 µM) of the same compound?
**A.** Its relative viability is 0.564.

**Q.** And the relative viability ([9]; first compound 0.04 µM)?
**A.** The relative viability was 0.397.

**Q.** And the relative viability ([9]; first compound 0.1265 µM)?
**A.** Its relative viability is 0.391.

**Q.** What about the relative viability ([9]; first compound 0.4 µM) of the same compound?
**A.** Its relative viability is 0.488.

**Q.** What about the relative viability ([9]; first compound 1.265 µM) of the same compound?
**A.** The relative viability was 0.464.

**Q.** What about the relative viability ([9]; first compound 4 µM) of the same compound?
**A.** Its relative viability is 0.364.

**Q.** What about the relative viability ([10]; first compound 0.04 µM) of the same compound?
**A.** Its relative viability is 0.665.

**Q.** And the relative viability ([10]; first compound 0.1265 µM)?
**A.** The relative viability was 0.631.

**Q.** What about the relative viability ([10]; first compound 1.265 µM) of the same compound?
**A.** Its relative viability is 0.666.

**Q.** And the relative viability ([10]; first compound 4 µM)?
**A.** Its relative viability is 0.608.

**Q.** And the relative viability ([11]; first compound 0.04 µM)?
**A.** The relative viability was 0.759.

**Q.** What about the relative viability ([11]; first compound 0.1265 µM) of the same compound?
**A.** Its relative viability is 0.698.

**Q.** And the relative viability ([11]; first compound 0.4 µM)?
**A.** Its relative viability is 0.889.

**Q.** What about the relative viability ([11]; first compound 1.265 µM) of the same compound?
**A.** Its relative viability is 0.657.

**Q.** What about the relative viability ([11]; first compound 4 µM) of the same compound?
**A.** The relative viability was 0.666.

**Q.** And the relative viability ([12]; first compound 0.04 µM)?
**A.** The relative viability was 0.769.

**Q.** What about the relative viability ([12]; first compound 0.1265 µM) of the same compound?
**A.** Its relative viability is 0.454.

**Q.** And the relative viability ([12]; first compound 0.4 µM)?
**A.** Its relative viability is 0.438.

**Q.** What about the relative viability ([12]; first compound 1.265 µM) of the same compound?
**A.** Its relative viability is 0.633.

**Q.** And the relative viability ([12]; first compound 4 µM)?
**A.** The relative viability was 0.514.

**Q.** What about the relative viability [13] of the same compound?
**A.** The relative viability was 0.55.
